Assay results published in paper PMC3172300, “Modulation of Catalytic Activity in Multi-Domain Protein Tyrosine Phosphatases” (PLoS ONE, 2011).
Where two headings read alike, the source gives them in different places. Square brackets hold non-standard residues; d marks the D form. Ends that are not written are not given here. Peptide text beside a SMILES is read from it. pY = N[C@@H](Cc1ccc(OP(=O)(O)O)cc1)C(=O)O

Columns and labels:
DLAR D1 = target: T1, DLAR D1 (Drosophila melanogaster, UniProt P16621); experiment: Dephosphorylation of phosphotyrosine peptides (malachite green), DLAR D1; assay type: biochemical; settings: for Km / Vmax / Kcat / Kcat/Km: 0.01 µM protein; for Km / Kcat / Kcat/Km: 25 mM citrate pH 6.0, 15 min at 25°C, malachite green; for Vmax: 25 mM citrate buffer pH 6.0, 100 mM NaCl, 2 mM DTT, 15 min at 25°C, Biomol Green, 650 nm, Michaelis-Menten fit; for peptide preference: order of peptide substrates, DLAR D1 domain
T1 construct: DLAR 1448-1746; His tag (pET-15b or pET-22b); made in house; host or cells: E. coli BL21(DE3)
T1 sequence (P16621 1448-1746): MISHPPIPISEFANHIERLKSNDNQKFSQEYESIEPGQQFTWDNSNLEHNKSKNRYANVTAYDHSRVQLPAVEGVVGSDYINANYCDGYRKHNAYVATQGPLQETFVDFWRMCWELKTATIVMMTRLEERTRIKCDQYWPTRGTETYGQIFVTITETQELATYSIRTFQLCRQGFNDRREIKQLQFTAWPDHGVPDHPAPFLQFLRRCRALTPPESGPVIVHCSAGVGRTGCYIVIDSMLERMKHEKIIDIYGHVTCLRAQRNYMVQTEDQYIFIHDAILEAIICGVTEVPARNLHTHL
Text: (§1) Substrates of PTPs characterized thus far include the activation loop segments of various kinases and regulatory loops of other signaling proteins. Suitably designed peptide substrates mimic the physiologically relevant substrates of PTPs. In the present study, peptide substrates were designed for DLAR for which more information was available on its interacting partners. […] The five peptides were chosen based on their distinct charge distributions around the central phosphotyrosine residue. The phosphorylated as well as non-phosphorylated peptides were obtained from GL Bioscience, China. The peptides were >95% pure and were used after a single round of desalting using a Sephadex G25 column (GE Healthcare). The concentration of the peptide samples for biochemical studies was ascertained by UV absorption at 268 nm for the pY residue.
(§2) Phosphatase activity of the recombinant PTP domains was determined by using para-Nitrophenylphosphate (pNPP), a small molecule generic substrate, as well as phosphotyrosine containing peptides. The pNPP assay was performed as reported previously, with a modification in the buffer composition (25 mM Citrate, Glycine and HEPES (CGH), pH 6.5, 100 mM NaCl and 2 mM DTT). Phosphatase activity with the phosphotyrosine peptides was ascertained by the malachite green reaction as described for PTPs previously. Briefly, the reaction mixture comprised of 0.01 µM protein incubated with increasing concentrations of different peptides in 25 mM citrate buffer pH 6.0, 100 mM NaCl and 2 mM DTT for 15 min at 25°C. The reaction was stopped by the addition of the Biomol Green reagent (Enzo Life Sciences) and the colour developed after 20 min was quantified at 650 nm. For all the assays, kinetic constants for the steady state catalysis were obtained by fitting the reaction curves to the Michaelis-Menten equation using the nonlinear regression module of Sigma plot software (Systat Software, Inc.).

PTP99A D1D2 = target: T2, PTP99A D1D2 (Drosophila melanogaster, UniProt P35832); experiment: Dephosphorylation of phosphotyrosine peptides (malachite green), PTP99A D1D2; settings: for Vmax / Kcat / Kcat/Km / Km: 0.01 µM protein; for Vmax: 25 mM citrate buffer pH 6.0, 100 mM NaCl, 2 mM DTT, 15 min at 25°C, Biomol Green, 650 nm, Michaelis-Menten fit; for Kcat / Kcat/Km / Km: 25 mM citrate pH 6.0, 15 min at 25°C, malachite green; for substrate preference: order of peptide substrates, PTP99A D1D2
T2 sequence (P35832 450-1050): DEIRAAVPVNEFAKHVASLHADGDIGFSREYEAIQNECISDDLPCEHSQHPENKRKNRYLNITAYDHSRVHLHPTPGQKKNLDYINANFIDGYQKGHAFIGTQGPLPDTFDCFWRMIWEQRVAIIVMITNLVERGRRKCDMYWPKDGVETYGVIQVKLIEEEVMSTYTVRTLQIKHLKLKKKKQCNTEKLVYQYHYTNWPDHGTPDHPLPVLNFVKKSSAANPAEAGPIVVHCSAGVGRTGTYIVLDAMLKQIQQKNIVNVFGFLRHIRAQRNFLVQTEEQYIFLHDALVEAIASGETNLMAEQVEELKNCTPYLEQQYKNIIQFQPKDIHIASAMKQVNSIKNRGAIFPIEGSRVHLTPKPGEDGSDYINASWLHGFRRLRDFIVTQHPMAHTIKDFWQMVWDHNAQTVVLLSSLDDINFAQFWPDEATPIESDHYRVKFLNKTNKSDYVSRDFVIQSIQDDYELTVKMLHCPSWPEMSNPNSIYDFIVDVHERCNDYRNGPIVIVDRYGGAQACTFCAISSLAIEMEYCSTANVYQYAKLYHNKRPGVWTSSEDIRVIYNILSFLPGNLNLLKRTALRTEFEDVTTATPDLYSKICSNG
Text: as §1, §2

PTP99A D1 = target: T3, PTP99A D1 (Drosophila melanogaster, UniProt P35832); experiment: Dephosphorylation of phosphotyrosine peptides (malachite green), PTP99A D1; settings: for Vmax / Kcat / Kcat/Km / Km: 0.01 µM protein; for Vmax: 25 mM citrate buffer pH 6.0, 100 mM NaCl, 2 mM DTT, 15 min at 25°C, Biomol Green, 650 nm, Michaelis-Menten fit; for Kcat / Kcat/Km / Km: 25 mM citrate pH 6.0, 15 min at 25°C, malachite green; for peptide preference: order of peptide substrates
T3 sequence (P35832 450-756): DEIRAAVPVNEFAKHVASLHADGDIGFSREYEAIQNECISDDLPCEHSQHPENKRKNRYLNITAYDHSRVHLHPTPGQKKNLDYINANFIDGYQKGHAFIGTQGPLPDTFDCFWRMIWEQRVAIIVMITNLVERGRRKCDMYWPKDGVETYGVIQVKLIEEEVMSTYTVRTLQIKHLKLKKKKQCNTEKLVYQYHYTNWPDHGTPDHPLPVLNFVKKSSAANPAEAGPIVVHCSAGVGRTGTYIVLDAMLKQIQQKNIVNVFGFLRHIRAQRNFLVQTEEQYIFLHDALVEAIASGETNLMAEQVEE
Text: as §1, §2

PTP99A D2 = target: T4, PTP99A D2 (Drosophila melanogaster, UniProt P35832); experiment: Peptide preference of the PTP99A D2 domain from ratios of kcat/Km (D1D2 vs D1); assay type: biochemical; settings: order of peptide substrates, from comparison of kcat/Km of D1D2 with D1
T4 sequence (P35832 740-1050): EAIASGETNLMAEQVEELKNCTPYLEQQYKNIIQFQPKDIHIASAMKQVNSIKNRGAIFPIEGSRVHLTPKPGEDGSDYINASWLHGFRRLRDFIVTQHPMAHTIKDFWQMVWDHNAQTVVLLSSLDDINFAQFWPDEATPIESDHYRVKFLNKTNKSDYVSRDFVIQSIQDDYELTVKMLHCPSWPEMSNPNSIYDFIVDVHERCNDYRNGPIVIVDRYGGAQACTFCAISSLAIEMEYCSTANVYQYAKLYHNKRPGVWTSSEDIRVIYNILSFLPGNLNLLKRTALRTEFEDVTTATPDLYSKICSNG
Method: as §2
The difference between the most and least preferred substrate in the case of DLAR D1D2 was much less (∼16.0×10^4 sec^−1 M^−1 between Cuticle and Myospheroid peptides) when compared to DLAR D1 alone (∼130.0×10^4 sec^−1 M^−1 between Insulin Receptor and Abelson peptides). […] A more comprehensive study of this activation mechanism is being reported elsewhere.

Row | Compound | Km (DLAR D1) | Vmax (PTP99A D1D2) | Kcat (PTP99A D1D2) | Kcat/Km (PTP99A D1D2) | Km (PTP99A D1D2) | substrate preference (PTP99A D1D2) | Vmax (PTP99A D1) | Kcat (PTP99A D1) | Kcat/Km (PTP99A D1) | Km (PTP99A D1) | difference between the most and least preferred substrate (kcat/Km) (PTP99A D1; PTP99A D1 domain, between Abelson peptide and Insulin Receptor peptides) | peptide preference (PTP99A D1; PTP99A D1 domain) | Vmax (DLAR D1) | Kcat (DLAR D1) | Kcat/Km (DLAR D1) | Km (DLAR D1; read-out: Km) | peptide preference (DLAR D1) | peptide preference (PTP99A D2)
1 | CC(C)C[C@H](NC(=O)[C@H](C)NC(=O)CNC(=O)[C@H](Cc1ccc(OP(=O)(O)O)cc1)NC(=O)[C@H](CC(=O)O)NC(=O)[C@@H]1CCCN1C(=O)[C@H](CCC(=O)O)NC(=O)[C@H](C)NC(=O)[C@@H](N)[C@@H](C)O)C(=O)N[C@@H](Cc1ccc(O)cc1)C(=O)N[C@@H](CCC(=O)O)C(=O)O [Cuticle peptide] (H-TAEPD[pY]GALYE-OH) | 56.5 ± 4.64 µM | – | – | – | – | – | – | – | – | – | – | – | – | – | – | – | – | –
2 | RDDT[pY]TAHAG [Abelson peptide, phosphotyrosine peptide RDDTpYTAHAG from PeptideMine server, obtained from GL Bioscience, >95% pure] | – | 2.59 ± 0.07 µmol/min/mg | 3.21 ± 0.08 s⁻¹ | 19.97 ± 0.15 x 10^4 sec^-1M^-1 | 16.3 ± 1.55 µM | Insulin Receptor peptide>Cuticle peptide>Myospheroid>Abelson peptide>Nervous fingers peptide | 0.83 ± 0.05 µmol/min/mg | 0.55 ± 0.04 s⁻¹ | 45.19 ± 0.29 x 10^2 sec^-1M^-1 | 122 ± 26.6 µM | ~3000 M⁻¹ s⁻¹ | Abelson peptide>Cuticle peptide>Nervous fingers peptide>Myospheroid peptide>Insulin receptor peptide | 4.95 ± 0.59 µmol/min/mg | 3.96 ± 0.68 s⁻¹ | 21.77 ± 0.32 x 10^4 sec^-1M^-1 | 18.2 ± 8.98 µM | Insulin receptor peptide>Cuticle peptide>Nervous fingers peptide>Myospheroid peptide>Abelson peptide | Nervous fingers peptide>Abelson peptide>Cuticle peptide>Myospheroid peptide>Insulin receptor peptide
3 | VIGD[pY]VCRLCK (cysteine pairing not given here) [Nervous Fingers peptide, phosphotyrosine peptide VIGDpYVCRLCK from PeptideMine server, obtained from GL Bioscience, >95% pure] | – | 8.89 ± 0.38 µmol/min/mg | 11.01 ± 0.46 s⁻¹ | 6.12 ± 0.12 x 10^4 sec^-1M^-1 | 180 ± 15 µM | Insulin Receptor peptide>Cuticle peptide>Myospheroid>Abelson peptide>Nervous fingers peptide | 4.42 ± 0.14 µmol/min/mg | 2.94 ± 0.10 s⁻¹ | 21.61 ± 0.24 x 10^2 sec^-1M^-1 | 1360 ± 94.7 µM | – | Abelson peptide>Cuticle peptide>Nervous fingers peptide>Myospheroid peptide>Insulin receptor peptide | 37.5 ± 1.4 µmol/min/mg | 30 ± 1.12 s⁻¹ | 78.51 ± 0.09 x 10^4 sec^-1M^-1 | 38.2 ± 5.05 µM | Insulin receptor peptide>Cuticle peptide>Nervous fingers peptide>Myospheroid peptide>Abelson peptide | Nervous fingers peptide>Abelson peptide>Cuticle peptide>Myospheroid peptide>Insulin receptor peptide
4 | CDDS[pY]FGNKC (cysteine pairing not given here) [Myospheroid peptide, phosphotyrosine peptide CDDSpYFGNKC from PeptideMine server, obtained from GL Bioscience, >95% pure] | – | 1.09 ± 0.03 µmol/min/mg | 1.35 ± 0.03 s⁻¹ | 44.1 ± 1.22 x 10^4 sec^-1M^-1 | 3.06 ± 0.36 µM | Insulin Receptor peptide>Cuticle peptide>Myospheroid>Abelson peptide>Nervous fingers peptide | 2.72 ± 0.13 µmol/min/mg | 1.81 ± 0.08 s⁻¹ | 20.40 ± 0.59 x 10^2 sec^-1M^-1 | 887 ± 102 µM | – | Abelson peptide>Cuticle peptide>Nervous fingers peptide>Myospheroid peptide>Insulin receptor peptide | 29.58 ± 0.84 µmol/min/mg | 23.66 ± 0.67 s⁻¹ | 30.14 ± 0.06 x 10^4 sec^-1M^-1 | 78.5 ± 6.67 µM | Insulin receptor peptide>Cuticle peptide>Nervous fingers peptide>Myospheroid peptide>Abelson peptide | Nervous fingers peptide>Abelson peptide>Cuticle peptide>Myospheroid peptide>Insulin receptor peptide
